From PubChem BioAssay (NCI)
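Five concentrations, 48 hours, 96-well plates. GI50: concentration for 50% inhibition of growth. TGI is the concentration that stops growth completely.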

What was measured:
Assay in all cases: NCI-60 cell line screen, 48 h
[1] = tested on: 786-0 renal
[2] = tested on: A498 renal
[3] = tested on: A549 NSCLC
[4] = tested on: ACHN renal
[5] = tested on: BT-549 breast
[6] = tested on: CAKI-1 renal
[7] = tested on: CCRF-CEM leukemia
[8] = tested on: COLO 205 colon
[9] = tested on: DU-145 prostate
[10] = tested on: EKVX NSCLC
[11] = tested on: HCC-2998 colon
[12] = tested on: HCT-116 colon
[13] = tested on: HCT-15 colon
[14] = tested on: HL-60(TB) leukemia
[15] = tested on: HOP-62 NSCLC
[16] = tested on: HOP-92 NSCLC
[17] = tested on: HS 578T breast
[18] = tested on: HT29 colon
[19] = tested on: IGROV1 ovarian
[20] = tested on: K-562 leukemia
[21] = tested on: KM12 colon
[22] = tested on: LOX IMVI melanoma
[23] = tested on: M14 melanoma
[24] = tested on: MALME-3M melanoma
[25] = tested on: MCF7 breast
[26] = tested on: MDA-MB-231 breast
[27] = tested on: MDA-MB-435
[28] = tested on: NCI-H226 lung
[29] = tested on: NCI-H23 lung

## O=C1C(Cl)=C(N2CCOCC2)C(=O)c2ccccc21
[1]
  GI50: 16.6 µM
  TGI: 31.2 µM
[2]
  GI50: 11.2 µM
  TGI: 24.3 µM
[3]
  GI50: 17.8 µM
  TGI: 32.3 µM
[4]
  GI50: 1.99 µM
  TGI: 3.48 µM
[5]
  GI50: 10.8 µM
  TGI: 23.2 µM
[6]
  GI50: 1.88 µM
  TGI: 3.49 µM
[7]
  GI50: 2.53 µM
  TGI: 6.77 µM
[8]
  GI50: 14.2 µM
  TGI: 27.8 µM
[9]
  GI50: 17.7 µM
  TGI: 31.9 µM
[10]
  GI50: 3.75 µM
  TGI: 14.3 µM
[11]
  GI50: 12 µM
  TGI: 25.6 µM
[12]
  GI50: 1.86 µM
  TGI: 3.37 µM
[13]
  GI50: 2.11 µM
  TGI: 4.33 µM
[14]
  GI50: 2.33 µM
  TGI: 5.32 µM
[15]
  GI50: 17.4 µM
  TGI: 31.3 µM
[16]
  GI50: 1.52 µM
  TGI: 3 µM
[17]
  GI50: 20.8 µM
  TGI: 69.6 µM
[18]
  GI50: 5.94 µM
  TGI: 21.8 µM
[19]
  GI50: 3.33 µM
  TGI: 6.74 µM
[20]
  GI50: 2.15 µM
  TGI: 7.8 µM
[21]
  GI50: 13.7 µM
  TGI: 27.6 µM
[22]
  GI50: 3.01 µM
  TGI: 13.6 µM
[23]
  GI50: 5.62 µM
  TGI: 18.7 µM
[24]
  GI50: 2.55 µM
  TGI: 4.85 µM
[25]
  GI50: 3.49 µM
  TGI: 17.9 µM
[26]
  GI50: 1.75 µM
  TGI: 3.72 µM
[27]
  GI50: 1.95 µM
  TGI: 3.72 µM
[28]
  GI50: 11.8 µM
  TGI: 24.2 µM
[29]
  GI50: 3.32 µM
